Values quoted from earlier work as cited in US20050039221A1, “Phenotypic effects of ubiquinone deficiencies and methods of screening thereof” (priority 2001, published 2005).

Key:
[1] = test system: complex I; conditions: synthetic DMQ2
[2] = test system: complex II; conditions: synthetic DMQ2
[3] = rodents

Row | Structure (SMILES) | Function as co-factor for electron transport from complex I [1] | Function as co-factor for electron transport from complex II [2] | Uptake of dietary UQ, share of the initially ingested ubiquinone [3]
1 | COC1=CC(=O)C(C)=C(C/C=C(\C)CCC=C(C)C)C1=O [DMQ2] | can function as a co-factor | more poorly | 
2 | COC1=C(OC)C(=O)C(C/C=C(\C)CC/C=C(\C)CC/C=C(\C)CC/C=C(\C)CC/C=C(\C)CC/C=C(\C)CC/C=C(\C)CC/C=C(\C)CC/C=C(\C)CCC=C(C)C)=C(C)C1=O [UQ, Ubiquinone] |  |  | 2-3%
